Measurements published in US6329497A, “Sandramycin analogs” (The Scripps Research Institute, priority 1999, dated 2001).

Columns and labels:
[1] = target: HIV-1 reverse transcriptase (Human immunodeficiency virus type 1 group M subtype B, UniProt P04585); test: Inhibition of HIV-1 reverse transcriptase; format: biochemical
Description: The assay was performed according to an available procedure (Goldman, M. E.; Salituro, G. S.; Bowen, J. A.; Williamson, J. M.; Zink, D. L.; Schleif, W. A.; Emini, E. A. Mol. Pharmacol. 1990, 38, 20) with slight modification. A 45 L solution of reaction buffer containing 55 mM Tris·HCl, pH 8.2, 80 mM potassium chloride, 12 mM MgCl2, 1 mM DTT, 50 M EGTA, 2.5 g/mL rA·dT, 0.5 Ci of [^3 H]TTP, 10 M TTP, 1 mg/mL BSA, and 0.01% Triton X-100 was added to a well in a filter cluster plate (Millipore MAHV N45). The reverse transcription reaction was initiated upon addition of the reverse transcriptase (1 unit; 1 unit=10 pmol of [^3 H]TMP incorporated/60 min at 37° C.). The plate was incubated at 37° C. for 90 min. The plate was then placed on ice and 200 µL of 13% trichloroacetic acid and 10 mM sodium pyrophosphate was added to each well. The plate was chilled for 2 h and the liquid vacuumed out through the filter using a Millipore manifold (Millipore MAVM 09601). The precipitate was washed with 1 M and 10 mM sodium pyrophosphate twice. The filter was punched out and placed in a scintillation vial. 4 mL of cocktail was added. Radioactivity was determined by liquid scintillation counting.
The effects of sandramycin and its analogs on HIV-1 reverse transcriptase were determined by incubating the agents and the rA·dT containing buffer at 25° C. for 30 min prior to addition of the reverse transcriptase. Reactions containing no agents were used as controls, and those lacking the transcriptase were used as blanks.

L1210 cell line = test: In vitro cytotoxic activity, L1210; format: cell-based

## COc1cc2ccccc2nc1C(=O)N[C@@H]1COC(=O)[C@H](C(C)C)N(C)C(=O)CN(C)C(=O)CNC(=O)[C@@H]2CCCCN2C(=O)[C@H](NC(=O)c2nc3ccccc3cc2OC)COC(=O)[C@H](C(C)C)N(C)C(=O)CN(C)C(=O)CNC(=O)[C@@H]2CCCCN2C1=O [compound 3, (N-(3-Methoxy-quinolinyl-2-carbonyl)-D-ser-Pip-Gly-Sar-NMe-Val)2 (Serine Hydroxyl) Dilactone]
[1]
  HIV-1 reverse transcriptase inhibition, in words: roughly maintain the HIV-1 reverse transcriptase inhibitory potency of 1
  reduction in inhibitory potency on O-alkylation of the C3 phenol: approx. 10

## CC(C)C1C(=O)OCC(NC(=O)c2cc3ccccc3cc2OCc2ccccc2)C(=O)N2CCCCC2C(=O)NCC(=O)N(C)CC(=O)N(C)C(C(C)C)C(=O)OCC(NC(=O)c2cc3ccccc3cc2OCc2ccccc2)C(=O)N2CCCCC2C(=O)NCC(=O)N(C)CC(=O)N1C [compound 6, (N-(3-Benzyl-oxynaphthyl-2-carbonyl)-D-Ser-Pip-Gly-Sar-NMe-Val)2 (Serine Hydroxyl) Dilactone]
L1210 cell line
  cytotoxic potency, fold less potent than 2: > 5000
  cytotoxic potency, fold less potent than 5: > 500

## CC(C)[C@H]1C(=O)OC[C@@H](NC(=O)c2ccccn2)C(=O)N2CCCC[C@H]2C(=O)NCC(=O)N(C)CC(=O)N(C)[C@@H](C(C)C)C(=O)OC[C@@H](NC(=O)c2ccccn2)C(=O)N2CCCC[C@H]2C(=O)NCC(=O)N(C)CC(=O)N1C [compound 10, (N-(Pyridyl-2-carbonyl)-D-Ser-Pip-Gly-Sar-NMe-Val)2 (Serine Hydroxyl) Dilactone]
[1]
  HIV-1 reverse transcriptase inhibition, in words: much less effective
L1210 cell line
  cytotoxic potency, fold less potent than 4: 4×10^5
  cytotoxic potency, fold less potent than 8: 1000

## COc1ccc2nc(C(=O)NC3COC(=O)C(C(C)C)N(C)C(=O)CN(C)C(=O)CNC(=O)C4CCCCN4C(=O)C(NC(=O)c4nc5ccc(OC)cc5cc4OCc4ccccc4)COC(=O)C(C(C)C)N(C)C(=O)CN(C)C(=O)CNC(=O)C4CCCCN4C3=O)c(OCc3ccccc3)cc2c1 [compound 12, (N-(3-Benzyloxy-6-methoxy-quinolinyl-2-carbonyl)-D-Ser-Pip-Gly-Sar-NMe-Val)2 (Serine Hydroxyl) Dilactone]
L1210 cell line
  cytotoxic potency, fold less potent than 2: 0.8
  cytotoxic potency, fold less potent than 11: 400

## COc1ccc2nc(C(=O)N[C@@H]3COC(=O)[C@H](C(C)C)N(C)C(=O)CN(C)C(=O)CNC(=O)[C@@H]4CCCCN4C(=O)[C@H](NC(=O)c4ccc5cc(OC)ccc5n4)COC(=O)[C@H](C(C)C)N(C)C(=O)CN(C)C(=O)CNC(=O)[C@@H]4CCCCN4C3=O)ccc2c1 [compound 13, (N-(6-Methoxyquinolinyl-2-carbonyl)-D-Ser-Pip-Gly-Sar-NMe-Val)2 (Serine Hydroxyl) Dilactone]
[1]
  HIV-1 reverse transcriptase inhibition, in words: Comparable but slightly less potent inhibition
L1210 cell line
  cytotoxic potency, fold less potent than 4: 2
  cytotoxic potency, fold less potent than 11: 10

## CC(C)C1C(=O)OCC(NC(=O)c2nc3ccccc3nc2OCc2ccccc2)C(=O)N2CCCCC2C(=O)NCC(=O)N(C)CC(=O)N(C)C(C(C)C)C(=O)OCC(NC(=O)c2nc3ccccc3nc2OCc2ccccc2)C(=O)N2CCCCC2C(=O)NCC(=O)N(C)CC(=O)N1C [compound 20, (N-(3-Benzyl-oxyquinoxalyl-2-carbonyl)-D-Ser-Pip-Gly-Sar-NMe-Val)2 (Serine Hydroxyl) Dilactone]
L1210 cell line
  cytotoxic potency, fold less potent than 19: 7

## (N-(3-Benzyl-oxypyridyl-2-carbonyl)-D-Ser-Pip-Gly-Sar-NMe-Val)2 (Serine Hydroxyl) Dilactons [compound 9]
L1210 cell line
  cytotoxic potency, fold less potent than 2: 4000
  cytotoxic potency, fold less potent than 8: 1000
